Data as given in PubChem BioAssay (NCI).
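Grown in 96-well plates, cells were treated for 48 hours with each compound at five concentrations. Insufficient inhibition: endpoint recorded as highest concentration tested. GI50: concentration for 50% inhibition of growth. The concentration for full growth arrest is given as TGI.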

Columns and labels:
Test in all cases: growth of human tumour cells (NCI), 48 h
DMS 273 small cell lung = tested on: DMS 273 small cell lung
SN12C renal = tested on: SN12C renal
786-0 renal = tested on: 786-0 renal
UACC-62 melanoma = tested on: UACC-62 melanoma
TK-10 renal = tested on: TK-10 renal
LXFL 529 NSCLC = tested on: LXFL 529 NSCLC
NCI-H226 lung = tested on: NCI-H226 lung
OVCAR-5 ovarian = tested on: OVCAR-5 ovarian
SW-620 colon = tested on: SW-620 colon
MCF7 breast = tested on: MCF7 breast

Row | Structure (SMILES) | TGI (DMS 273 small cell lung) | TGI (SN12C renal) | TGI (786-0 renal) | TGI (UACC-62 melanoma) | TGI (TK-10 renal) | TGI (LXFL 529 NSCLC) | TGI (NCI-H226 lung) | TGI (OVCAR-5 ovarian) | TGI (SW-620 colon) | GI50 (SN12C renal) | GI50 (786-0 renal) | GI50 (UACC-62 melanoma) | GI50 (LXFL 529 NSCLC) | GI50 (NCI-H226 lung) | GI50 (OVCAR-5 ovarian) | GI50 (SW-620 colon) | GI50 (TK-10 renal) | GI50 (DMS 273 small cell lung) | TGI (MCF7 breast) | GI50 (MCF7 breast)
1 | COc1ccc(OC(C)C(=O)O)c2c(=O)ccccc12 (stereo not drawn) | > 100 µM | > 100 µM | > 100 µM | > 100 µM | > 100 µM | > 100 µM | > 100 µM | > 100 µM | > 100 µM |  |  |  |  |  |  |  |  |  |  | 
2 | O/N=C/c1ccc(O)c(O)c1 | > 100 µM | > 100 µM | > 100 µM | > 100 µM | > 100 µM | > 100 µM | > 100 µM | > 100 µM | 35.3 µM |  |  |  |  |  |  |  |  |  |  | 
3 | CC(=O)[CH-]C(=O)c1ccccc1.CC(=O)[CH-]C(=O)c1ccccc1.[O-]c1ccc2c(c1)OCO2.[O-]c1ccc2c(c1)OCO2.[Ti+4] |  | > 100 µM | 80.7 µM | > 100 µM |  | 49.9 µM | 85 µM | > 100 µM | > 100 µM | 43.9 µM | 21.1 µM | 47.5 µM | 19.3 µM | 24.9 µM | 31.9 µM | 32.1 µM |  |  |  | 
4 | CCC(CO)Nc1nc2c(c(=O)n(C)c(=O)n2C)n1CCO (stereo not drawn) | > 100 µM | > 100 µM | > 100 µM | > 100 µM | > 100 µM | > 100 µM | > 100 µM | > 100 µM | > 100 µM |  |  |  |  |  |  |  |  |  |  | 
5 | O=C1Nc2cc(F)ccc2C1=O | > 100 µM | > 100 µM | > 100 µM | > 100 µM | > 100 µM | > 100 µM | > 100 µM | > 100 µM | > 100 µM |  |  |  |  |  |  |  |  |  |  | 
6 | CC(=O)Oc1ccc2c(c1)C(=O)c1nc(C)c(C)nc1C2=O | > 100 µM | > 100 µM | > 96.5 µM | 38.8 µM | > 100 µM | > 100 µM | > 100 µM | > 100 µM | > 100 µM |  |  |  |  |  |  |  |  |  |  | 
7 | CCCCN(CCCC)CC(C(C)=O)C(c1ccccc1)c1c(O)c2ccccc2oc1=O (stereo not drawn) | > 100 µM | > 100 µM | > 100 µM | > 100 µM | > 100 µM | > 100 µM | > 100 µM | > 100 µM | > 100 µM |  |  |  |  |  |  |  |  |  |  | 
8 | C1=CCCC=CCC1.C[PH+](C)C.C[PH+](C)C.C[PH+](C)C.[Cl-].[Ir] |  | > 100 µM | > 100 µM | > 100 µM | > 100 µM | 62.2 µM |  | > 100 µM | > 100 µM | 82.6 µM | > 100 µM | 32.6 µM | 17.3 µM |  | > 100 µM | 36.4 µM | > 100 µM |  |  | 
9 | O=c1c2cc3ccccc3n2c(=O)c2cc3ccccc3n12 | > 100 µM | > 100 µM | > 100 µM | > 100 µM | > 100 µM | > 100 µM | > 100 µM | > 100 µM | > 100 µM |  |  |  |  |  |  |  |  |  |  | 
10 | c1ccc(OC2=NC3=S(S2)SC(Oc2ccccc2)=N3)cc1 | 85.6 µM | 40.8 µM | 30.6 µM | 37.6 µM | 33 µM |  | 90.4 µM | 41.9 µM | 35.2 µM |  |  |  |  |  |  |  |  |  |  | 
11 | COc1cc2cnc3c4cc(OCc5ccccc5)ccc4ccc3c2cc1OC |  | > 100 µM | 44.5 µM | > 100 µM | 44 µM | > 100 µM | 72.6 µM | > 100 µM | > 100 µM |  |  |  |  |  |  |  |  |  |  | 
12 | O=C1NC2C(O)CCCCC2C12CCCCC2 (stereo not drawn) | > 100 µM | > 100 µM | > 100 µM | > 100 µM |  | > 100 µM |  | > 100 µM | > 100 µM |  |  |  |  |  |  |  |  |  |  | 
13 | C[CH2][Sn]([CH2]C)([O]C(=O)c1ccc(F)cc1)[O]C(=O)c1ccc(F)cc1 | > 100 µM | > 100 µM | 35.1 µM | 36.6 µM | 32.4 µM | 21.1 µM | 29.4 µM | > 77.2 µM | 46.7 µM | 36 µM | 18.8 µM | 17.7 µM | 7.84 µM | 15.5 µM | 30.5 µM | 22 µM | 17.8 µM | 55.6 µM |  | 
14 | Nc1c2ccccc2nc2c(C(=O)Nc3ccc(S(N)(=O)=O)cc3)cccc12 | > 100 µM | > 100 µM | > 100 µM | > 100 µM | > 100 µM | > 100 µM | > 100 µM | > 100 µM | > 100 µM |  |  |  |  |  |  |  |  |  |  | 
15 | C[C@H]1C=C2C(=O)O[C@H]3CC[C@@H](C1)[C@@]23O |  | 6.76 µM | 12.2 µM | 13.2 µM | 8 µM | 10.6 µM | 29.3 µM | 12.7 µM | 10.3 µM |  |  |  |  |  |  |  |  |  |  | 
16 | CC1c2[nH]c3ccccc3c2CCN1O (stereo not drawn) | > 100 µM | > 100 µM | > 100 µM | > 100 µM | > 100 µM | > 100 µM | > 100 µM | > 100 µM | > 100 µM |  |  |  |  |  |  |  |  |  |  | 
17 | COC(=O)N/N=C(\C)CC(=O)Nc1ccc(Cl)cc1 |  |  | > 100 µM | > 100 µM | > 100 µM | > 100 µM | > 100 µM | > 100 µM | > 100 µM |  |  |  |  |  |  |  |  |  |  | 
18 | COc1ccc([C@@H]2OC(=O)C3C2C(=O)O[C@H]3c2ccc(OC)c(OC)c2)cc1OC (stereo partly drawn) | > 100 µM | > 100 µM | > 100 µM | > 100 µM | > 100 µM |  | > 100 µM |  | > 100 µM |  |  |  |  |  |  |  |  |  |  | 
19 | CCC[CH2][Sn]1([CH2]CCC)[S]CC[N]1S(=O)(=O)c1ccc(C)cc1 | 3.16 µM |  | 2.53 µM | 3.13 µM | 3.04 µM | 1.12 µM | 3.45 µM | 6.12 µM |  |  | 1.26 µM | 1.47 µM | 0.33 µM | 2.03 µM | 2.82 µM |  | 1.64 µM | 1.65 µM |  | 
20 | CC[PH+](CC)CC.[Cl][Au] | 22.1 µM | 3.55 µM | 2.74 µM | 2.63 µM | 3.51 µM | 1.07 µM | 9.32 µM | 28.5 µM | 1.98 µM | 1.82 µM | 1.42 µM | 1.16 µM | 0.481 µM | 4.49 µM | 15.2 µM | 0.567 µM | 2 µM | 4.77 µM |  | 
21 | C=C1C(OC(C)=O)CC(OC(C)=O)C2(C)C(OC(C)=O)C(OC(C)=O)C3=C(C)C(OC(=O)/C=C/c4ccccc4)CC(C(OC(C)=O)C12)C3(C)C (stereo not drawn) | > 100 µM | > 100 µM | > 100 µM | > 100 µM | > 100 µM | > 100 µM | > 100 µM | > 100 µM | > 100 µM |  |  |  |  |  |  |  |  |  |  | 
22 | O=C[C@@H](CO)O[C@H](C=O)n1cnc2c(=O)[nH]cnc21 | 1570 µM | 1380 µM | 2010 µM | 1670 µM | 1830 µM |  | 1780 µM | 1820 µM | 868 µM |  |  |  |  |  |  |  |  |  | 409 µM | 
23 | C=C1C[C@@H]2C[C@@H](C)CC(O)[C@]2(CCCN)C1O (stereo partly drawn) | > 100 µM | > 100 µM | > 100 µM | > 100 µM | > 100 µM | > 100 µM | > 100 µM | > 100 µM | > 100 µM |  |  |  |  |  |  |  |  |  |  | 
24 | O=C([O-])CC(=O)[O-].[NH-][C@@H]1CCCC[C@H]1[NH-].[Pt+4] |  | > 100 µM | > 100 µM | > 100 µM | > 100 µM | > 100 µM | > 80.6 µM | > 100 µM | > 100 µM | 15 µM | 13.2 µM | 20.2 µM | 25.2 µM | 5.9 µM | > 63.9 µM | 2.1 µM | > 100 µM |  |  | 
25 | CO[C@@]1(c2ccccc2)O[C@H]2OCCC2[C@H]1c1ccc(Cl)cc1 (stereo partly drawn) | > 100 µM | > 100 µM | > 100 µM | > 100 µM | > 100 µM | > 100 µM | > 100 µM | > 100 µM | > 100 µM |  |  |  |  |  |  |  |  |  |  | 
26 | CC1=CCCC2C(C=O)(C1)CC(C)C2(CO)CC/C(=C/CO)CO (stereo not drawn) | > 100 µM | > 100 µM | > 100 µM | > 100 µM | > 100 µM | > 100 µM | > 100 µM |  | > 100 µM |  |  |  |  |  |  |  |  |  |  | 
27 | CC(=O)[O-].N.N.N.N.[Co+3].[O-][Cl+3]([O-])([O-])[O-].[OH3+] | > 100 µM | > 100 µM | > 100 µM | > 100 µM | > 100 µM | > 100 µM |  | > 100 µM | > 100 µM | > 100 µM | > 100 µM | > 100 µM | > 100 µM |  | > 100 µM | > 100 µM | > 100 µM | > 100 µM |  | 
28 | CC/C(=C/c1ccc(OC)cc1OC)[N+](=O)[O-] |  | 6.61 µM | 3.29 µM | 3.96 µM | 6.5 µM |  | 4.73 µM | 22.2 µM | 4.93 µM | 2.31 µM | 1.77 µM | 1.73 µM |  | 2.28 µM | 7.59 µM | 2.28 µM | 2.62 µM |  | 3.92 µM | 0.852 µM
29 | COc1ccc2nc3cc(Cl)ccc3c(Nc3cc(CN4CCCC4)c(O)c(CN4CCCC4)c3)c2n1 |  | 10.8 µM | 11.4 µM | 3.56 µM | 66.3 µM |  | 3.24 µM | 11.9 µM | 4.95 µM | 1.35 µM | 1.87 µM | 1.74 µM |  | 1.55 µM | 2.66 µM | 0.629 µM | 5.69 µM |  | 8.34 µM | 1 µM
30 | CN(C)CCCNc1nc2ccccc2c2[nH]c3ccccc3c12 |  | 2.26 µM | 5.2 µM | 11.9 µM | 4.04 µM |  | 4.22 µM | 9.36 µM | 7.21 µM | 0.639 µM | 0.958 µM | 4.01 µM |  | 1.26 µM | 1.28 µM | 0.387 µM | 1.45 µM |  | 1.81 µM | 0.417 µM
